Assay [1] concerns MCF-7 cells. The experiment in a line: Cell cycle progression by flow cytometry, MCF-7. The following applies: MCF-7, 72 h, compound at its EC50. It counts as cell-based, human.
The test system of assay [2] is MCF-7 cells. The experiment in a line: MTT viability assay, MCF-7. It counts as cell-based. The following applies: Homo sapiens, read-out: EC50 ± SD MCF-7. How it is done: To test the anti-cancer effect of the TBBi derivatives, we treated the MCF-7 and MDA-MB-231 cells with the newly synthesized esters and previously reported compounds [34, 57] at the concentration range of 3.125 to 200 µM for 24 h, 48 h and 72 h. Additionally, the range of concentrations was extended by additional lower concentrations in MCF-7 for compound 4 with the minimum concentration of 0.195 µM. […] The EC50 values, describing the half maximal effective concentration of each tested compound, were calculated and are summarized in Table 2. […] We observed that the EC50 values increase in both cell lines with the elongation of fatty acids chain length in the tested compounds, thus strongly correlating with the decrease of their solubility in biological media as characterized by logS parameter (Table 2). The second reason for the decreased biological activity of the longer-chain aliphatic esters might be attributed to their greater resistance toward intracellular hydrolysis, which directly influences the slower release of the active form of the corresponding CK2 inhibitors. […] However, none of the tested compounds, except for compound 5, decreased the viability of both cell lines in a time-dependent manner (Figure 4).
MCF-7 and MDA-MB-231 were cultured in high-glucose Dulbecco’s modified Eagle medium (DMEM, Lonza, Basel, Switzerland) supplemented with 10% fetal bovine serum (FBS, EuroClone, Siziano, Italy)), 2 mM L-glutamine, and antibiotics (100 U/mL penicillin, 100 µg/mL streptomycin) (Sigma-Aldrich Chemical Company (St. Louis, MO, USA). Cells were grown in 75-cm^2 cell culture flasks (Sarstedt, Nümbrecht, Germany) in a humidified atmosphere of CO2/air (5%/95%) at 37 °C. All the experiments were performed in exponentially growing cultures. Stock solutions of the test compounds were prepared in DMSO and stored in −80 °C for a maximum of one month. For the cytotoxicity studies, stock solutions of the tested compounds were diluted 200-fold with the proper culture medium to obtain the final concentrations.
After incubation with the tested compounds, an MTT test was performed as described previously. Optical densities were measured at 570 nm using BioTek microplate reader (Winooski, VT, USA). All measurements were carried out in a minimum of three biological replicates.
A general note: Tetrazolium dyes change colour on reduction, which living cells bring about.

A further assay has as its system MDA-MB-231 cells. Kind of assay: Annexin V-FITC/PI flow cytometry, MDA-MB-231. To be noted: compound at its EC50. Type of assay: cell-based, human. How it is done:
Similar to the results obtained for MCF-7 cells, compound 6b acted in MDA-MB-231 cells as an effective inducer of apoptosis with the amount of apoptotic cells equal to 31.5% and 49% after 24 h and 72 h of treatment, respectively.
MCF-7 cells were seeded in six-well plates at 1.5 × 10^5 cells/well. […] Then, the plates were incubated for 24 h or 72 h. After exposure to the examined compounds, the floating cells were collected, and monolayer cell culture was trypsinized. The cells were centrifugated at 200× g at 4 °C for 5 min, washed twice in cold phosphate-buffered saline (PBS), and subsequently suspended in binding buffer at 1 × 10^6 cells/mL. Subsequently, 100-μL aliquots of the cell suspension were labeled according to the kit manufacturer’s instructions. Briefly, annexin V-fluorescein isothiocyanate and propidium iodide (BD Biosciences, Pharmingen, San Diego, CA, USA) were added to the cell suspension, and the mixture was vortexed and then incubated for 15 min at RT in the dark. A cold binding buffer (900 μL) was then added and the cells were vortexed again and kept on ice. Flow cytometric measurements were performed within 1 h after labeling. Viable, necrotic, early, and late apoptotic cells were detected by flow cytometry using CyFlow Cube 8 (Sysmex, Norderstedt, Germany) flow cytometer.
On the technique in general: In flow cytometry, cells or beads pass a laser one at a time.

Assay [3] has as its target CK2 holoenzyme (CK2 α2β2) (Homo sapiens, UniProt P68400). Kind of assay: Radiometric (P81 filter isotopic) kinase assay, CK2 holoenzyme. Type of assay: biochemical. To be noted: read-out: Residual Activity of the Enzyme CK2 α2β2; for remaining activity at 5 µM: 5 µM compound; for remaining activity at 10 µM: 10 µM compound.

Like-named read-outs stand apart in the source and are kept apart here.

CK2 holoenzyme (CK2 α2β2), sequence (P68400 whole entry): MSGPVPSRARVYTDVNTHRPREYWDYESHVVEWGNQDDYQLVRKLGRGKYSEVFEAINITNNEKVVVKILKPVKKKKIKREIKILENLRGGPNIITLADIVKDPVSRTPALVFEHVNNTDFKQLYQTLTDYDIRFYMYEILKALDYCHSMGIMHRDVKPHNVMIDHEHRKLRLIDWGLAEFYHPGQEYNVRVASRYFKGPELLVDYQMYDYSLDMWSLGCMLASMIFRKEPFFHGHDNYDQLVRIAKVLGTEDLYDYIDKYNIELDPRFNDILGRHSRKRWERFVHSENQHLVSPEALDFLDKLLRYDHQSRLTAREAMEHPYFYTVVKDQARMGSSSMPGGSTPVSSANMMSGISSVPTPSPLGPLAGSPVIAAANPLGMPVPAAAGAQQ
CK2 holoenzyme (CK2 α2β2), sequence (P67870 whole entry partner): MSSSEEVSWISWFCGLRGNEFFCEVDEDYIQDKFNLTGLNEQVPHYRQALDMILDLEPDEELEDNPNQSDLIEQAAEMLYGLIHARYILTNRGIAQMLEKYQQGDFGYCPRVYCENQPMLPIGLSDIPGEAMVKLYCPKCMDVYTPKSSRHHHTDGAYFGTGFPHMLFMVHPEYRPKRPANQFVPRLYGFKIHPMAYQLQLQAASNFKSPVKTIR

As a reminder, the EC50 is the midpoint of the concentration-response curve. With `CCCCCCCC(=O)OCCCn1cnc2c(Br)c(Br)c(Br)c(Br)c21` [Compound 3c, 3-(4,5,6,7-Tetrabromo-1H-benzimidazol-1-yl)propyl octanoate], in the assay on MCF-7 cells [1], the “cells in G1” value is listed as 59.4%, the “cells in G2M” value was found to be 11.0% and the “cells in S” value is reported as 29.6%. Further, the EC50 in the assay on MCF-7 cells [2] (MCF7, 24 h) is 24.3 ± 0.25 µM. Besides, the EC50 in the assay with MCF-7 cells [2] (MCF7, 48 h) came to 21.1 ± 1.23 µM. Besides, the concentration for a half-maximal effect (EC50) in the assay on MCF-7 cells [2] (MCF7, 72 h) was 29.9 ± 1.45 µM. In the assay on MDA-MB-231 cells (MDA-MB-231, 24 h treatment), this molecule had an apoptotic cells of 32.5%. In addition, the apoptotic cells with MDA-MB-231 cells (MDA-MB-231, 72 h treatment) is 50.5%. Further, in assay [3], the remaining activity at 5 µM was determined as 95.3 ± 2.9% and the remaining activity at 10 µM came to 92.7 ± 3.5%.
On to `CCCCCC(=O)OCCCn1c(C)nc2c(Br)c(Br)c(Br)c(Br)c21` [Compound 6b, (4,5,6,7-Tetrabromo-2-methyl-1H-benzimidazol-1-yl)propyl hexanoate], for which, in the assay on MCF-7 cells [1], the “cells in G1” value amounted to 50.1%, the “cells in G2M” value worked out at 19.9% and the “cells in S” value was 30.0%. In addition, the EC50 in the assay with MCF-7 cells [2] (MCF7, 24 h) amounted to 22.4 ± 1.12 µM. In addition, the EC50 in the assay with MCF-7 cells [2] (MCF7, 48 h) turned out to be 18.59 ± 0.18 µM. Moreover, the EC50 with MCF-7 cells [2] (MCF7, 72 h) is 18.3 ± 2.86 µM. In addition, in the assay with MDA-MB-231 cells (MDA-MB-231, 24 h treatment), the apoptotic cells was 31.5%. The molecule also had an apoptotic cells in the assay on MDA-MB-231 cells (MDA-MB-231, 72 h treatment) of 49%. For the same molecule, in assay [3], the remaining activity at 5 µM amounted to 85.4 ± 0.6% and the remaining activity at 10 µM worked out at 71.4 ± 0.2%.

The values above are taken from article PMC8230474, “Synthesis of Novel Acyl Derivatives of 3-(4,5,6,7-Tetrabromo-1H-benzimidazol-1-yl)propan-1-ols—Intracellular TBBi-Based CK2 Inhibitors with Proapoptotic Properties” (International Journal of Molecular Sciences, 2021).
